{"source": "patent US6723897B2", "about": "“Methods for controlling gibberellin levels” (Monsanto Technology, LLC, priority 1998, dated 2004)", "key": {"[1]": {"test_system": "wild-type soybean line A4922", "assay": "Field trial of seed coating application rates, wild-type soybean", "protocol": "(§1) GA3, GA3-3-acetate, GA5, GA9, and GA12 are evaluated in further field trials. […] The objectives of these tests are: 1) to determine if seed coatings, as compared to imbibition, of GA compounds facilitate rescue of constitutively GA-deficient transgenic dwarf soybeans (transgenic lines 719−2 plus 719+17) without causing elongation of wild-type soybeans (line A4922), and 2) to determine the seed treatment rate ranges for each of the selected GA compounds that would provide rescue of constitutively GA-deficient transgenic dwarf soybeans (transgenic lines 719−2 plus 719+17) without causing elongation of wild-type soybeans (line A4922).\n(§2) Seeds are treated with GA3, GA5, GA9, GA12, and GA3-3-acetate at rates of 0, 0.1, 1, 10, and 100 μg/seed. These GA compounds are applied to the seeds using a Hege 11 seed treater (Hans-Ulrich Hege GmbH & Co., Waldenburg, Germany); 100% acetone is used as the carrier solvent. The amount of liquid introduced into the seed treater is six fluid ounces/100 lbs seed rate. In addition, GA12 is tested at 50 μg/seed. The untreated control (UTC) consisted of dry, untreated seeds. Seeds of constitutively GA-deficient transgenic dwarf soybean line 719 and wild-type A4922 are sown in both light and heavy soil. The planting depth is 0.5 to 1 inch (1.27 to 2.54 cm); watering is via drip irrigation. The experiment is carried out in three repetitions, using 25 seeds/plot (one five foot (152.4 cm) long row) for line 719, and 75 seeds/plot (two eight foot (243.8 cm) rows) for line A4922. Observations included total emergence, number of dwarfs not rescued, uniformity in plant height, average plant height, visual notes, and digital photos.\n(§3) In all the experiments reported in Tables 17-24, treatments are replicated three times in a randomized block design. Data are analyzed using LSD (least significant difference) 0.05 probability using the PRM 5.0 Statistical Analysis Program (SAS Institute, North Carolina)."}, "[2]": {"test_system": "constitutively GA-deficient transgenic dwarf soybean line 719", "assay": "Field trial of seed coating application rates, GA-deficient soybean", "format": "in vivo, Glycine max", "conditions": "for 719 Height, cm, Heavy soil / 719 Height, cm, Light soil / No. 719 Emerged, Heavy soil / No. 719 Emerged, Light soil / No. 719 Not Rescued, Heavy soil / No. 719 Not Rescued, Light soil: seed coating", "protocol": "as §1, §2, §3"}, "[3]": {"test_system": "non-transgenic soybean line A4922", "assay": "Field trial of seed coatings under soil compaction / different soils, wild-type soybean", "format": "in vivo, Glycine max", "conditions": "for Count (emergence) / Height (total plant height): A4922", "protocol": "The second trial (data reported in Tables 22-24) tested the precursors under conditions of soil compaction.\nAs noted above, the second trial tested the noted precursors under conditions of soil compaction. These experiments are performed in the same manner as in the first trial, except that the soil is compacted with an all-terrain vehicle.\n“Height” equals total plant height in cm."}, "[4]": {"test_system": "wild-type soybean line A3237", "assay": "Experiment II second greenhouse test, seed imbibition, wild-type soybean", "format": "in vivo, Glycine max", "conditions": "0.125 mg/ml; seeds imbibed 6 hours", "protocol": "(The compounds are tested in Experiment I at only one concentration, i.e., 0.25 mg/ml). Test tubes contained […] of ethanol solution per tube. Final volumes are made up to 30 ml with deionized water. After shaking, the treatment solutions (15 ml each) are transferred to each of two 50 ml test tubes. […] Twenty seeds are used in each treatment. Dry seed, ethanol/water-imbibed seed (1% ethanol in water, v/v), and water-imbibed seeds are included as controls. Seeds are imbibed for 6 hours in the test solutions, then planted in bread pans containing Metromix 350 (The Scotts Company, Marysville, Ohio), and covered with 0.5″ Metro-mix. Covered pans are transferred to the greenhouse and subirrigated. Illumination is at a light intensity of 300-400 μmolm^−2s^−1 photosynthetic photon flux; 16 hours light/8 hours dark. Subsequent waterings are also through sub-irrigation until the test is terminated three weeks later. Observations included the number of dwarf, intermediate, and tall plants; plant height; uniformity of rescue; and any visual effects. Digital photographs are also taken."}, "[5]": {"conditions": "Heavy soil - loose, target rate 2.0 μg/seed, Table 22"}, "[6]": {"conditions": "Heavy soil - loose, target rate 8.0 μg/seed, Table 22"}, "[7]": {"conditions": "Light soil - Compacted, target rate 2.0 μg/seed, Table 22"}, "[8]": {"conditions": "Light soil - Compacted, target rate 8.0 μg/seed, Table 22"}, "[9]": {"conditions": "Light soil - Loose, target rate 2.0 μg/seed, Table 24"}, "[10]": {"conditions": "Light soil - Loose, target rate 8.0 μg/seed, Table 24"}, "[11]": {"conditions": "Light soil - Loose, target rate 16.0 μg/seed, Table 24"}, "[12]": {"conditions": "Light soil - compacted, target rate 2.0 μg/seed, Table 24"}, "[13]": {"conditions": "Light soil - compacted, target rate 8.0 μg/seed, Table 24"}, "[14]": {"conditions": "Light soil - compacted, target rate 16.0 μg/seed, Table 24"}}}
{"smiles": "C=C1C[C@]23C[C@H]1CC[C@H]2[C@@]12CCC[C@@](C)(C(=O)O1)[C@H]2[C@@H]3C(=O)O", "note": "[GA9]", "values": [{"measurement": "A4922 Height, cm, Heavy soil", "setting": "[1]; 0.1 μg compound per seed", "value": 5.7, "unit": "efg cm"}, {"measurement": "A4922 Height, cm, Light soil", "setting": "[1]; 0.1 μg compound per seed", "value": 5.7, "unit": "f-i cm"}, {"measurement": "No. A4922 Emerged, Heavy soil", "setting": "[1]; 0.1 μg compound per seed", "value": 41.0, "unit": "a-d"}, {"measurement": "No. A4922 Emerged, Light soil", "setting": "[1]; 0.1 μg compound per seed", "value": 48.3, "unit": "b-e"}, {"measurement": "A4922 Height, cm, Heavy soil", "setting": "[1]; 1 μg compound per seed", "value": 6.3, "unit": "efg cm"}, {"measurement": "A4922 Height, cm, Light soil", "setting": "[1]; 1 μg compound per seed", "value": 6.3, "unit": "fgh cm"}, {"measurement": "No. A4922 Emerged, Heavy soil", "setting": "[1]; 1 μg compound per seed", "value": 43.0, "unit": "a-d"}, {"measurement": "No. A4922 Emerged, Light soil", "setting": "[1]; 1 μg compound per seed", "value": 46.7, "unit": "c-g"}, {"measurement": "A4922 Height, cm, Heavy soil", "setting": "[1]; 10 μg compound per seed", "value": 6.7, "unit": "efg cm"}, {"measurement": "A4922 Height, cm, Light soil", "setting": "[1]; 10 μg compound per seed", "value": 7.3, "unit": "fg·cm"}, {"measurement": "No. A4922 Emerged, Heavy soil", "setting": "[1]; 10 μg compound per seed", "value": 26.3, "unit": "g·days"}, {"measurement": "No. A4922 Emerged, Light soil", "setting": "[1]; 10 μg compound per seed", "value": 46.0, "unit": "c-h"}, {"measurement": "A4922 Height, cm, Heavy soil", "setting": "[1]; 100 μg compound per seed", "value": 10.3, "unit": "cm·days"}, {"measurement": "No. A4922 Emerged, Heavy soil", "setting": "[1]; 100 μg compound per seed", "value": 28.3, "unit": "c-g"}, {"measurement": "No. A4922 Emerged, Light soil", "setting": "[1]; 100 μg compound per seed", "value": 40.0, "unit": "f-i"}, {"measurement": "719 Height, cm, Heavy soil", "setting": "[2]; 10 μg compound per seed", "value": 4.0, "unit": "d-i cm"}, {"measurement": "719 Height, cm, Light soil", "setting": "[2]; 10 μg compound per seed", "value": 5.0, "unit": "efg cm"}, {"measurement": "No. 719 Emerged, Heavy soil", "setting": "[2]; 10 μg compound per seed", "value": 16.3, "unit": "b-e"}, {"measurement": "No. 719 Emerged, Light soil", "setting": "[2]; 10 μg compound per seed", "value": 21.7, "unit": "ab"}, {"measurement": "No. 719 Not Rescued, Heavy soil", "setting": "[2]; 10 μg compound per seed", "value": 0.7, "unit": "ef"}, {"measurement": "No. 719 Not Rescued, Light soil", "setting": "[2]; 10 μg compound per seed", "value": 0.3}, {"measurement": "719 Height, cm, Heavy soil", "setting": "[2]; 100 μg compound per seed", "value": 8.3, "unit": "ab cm"}, {"measurement": "719 Height, cm, Light soil", "setting": "[2]; 100 μg compound per seed", "value": 10.3, "unit": "cd cm"}, {"measurement": "No. 719 Emerged, Heavy soil", "setting": "[2]; 100 μg compound per seed", "value": 20.3, "unit": "a-d"}, {"measurement": "No. 719 Emerged, Light soil", "setting": "[2]; 100 μg compound per seed", "value": 19.0, "unit": "a-e"}, {"measurement": "No. 719 Not Rescued, Heavy soil", "setting": "[2]; 100 μg compound per seed", "value": 0, "unit": "f"}, {"measurement": "No. 719 Not Rescued, Light soil", "setting": "[2]; 100 μg compound per seed", "value": 0}, {"measurement": "appearance of line 719 seedlings", "setting": "[2]; 0.1 and 1 μg per seed", "value": "appeared unusually abnormal"}, {"measurement": "Count (emergence)", "setting": "[3]; [5]", "value": 33, "unit": "ab"}, {"measurement": "Height (total plant height)", "setting": "[3]; [5]", "value": 5.3, "unit": "g·cm·days"}, {"measurement": "Count (emergence)", "setting": "[3]; [6]", "value": 29, "unit": "a-d"}, {"measurement": "Height (total plant height)", "setting": "[3]; [6]", "value": 6.3, "unit": "cde cm"}, {"measurement": "Count (emergence)", "setting": "[3]; [7]", "value": 38, "unit": "abc"}, {"measurement": "Height (total plant height)", "setting": "[3]; [7]", "value": 5.7, "unit": "def cm"}, {"measurement": "Count (emergence)", "setting": "[3]; [8]", "value": 22, "unit": "de"}, {"measurement": "Height (total plant height)", "setting": "[3]; [8]", "value": 6.0, "unit": "de cm"}, {"measurement": "Count (emergence)", "setting": "[3]; [9]", "value": 41.3, "unit": "abc"}, {"measurement": "Height (total plant height)", "setting": "[3]; [9]", "value": 5.0, "unit": "gh cm"}, {"measurement": "Count (emergence)", "setting": "[3]; [10]", "value": 39.3, "unit": "bc"}, {"measurement": "Height (total plant height)", "setting": "[3]; [10]", "value": 7.0, "unit": "ef cm"}, {"measurement": "Count (emergence)", "setting": "[3]; [11]", "value": 39.0, "unit": "bc"}, {"measurement": "Height (total plant height)", "setting": "[3]; [11]", "value": 8.0, "unit": "de cm"}, {"measurement": "Count (emergence)", "setting": "[3]; [12]", "value": 38.0, "unit": "abc"}, {"measurement": "Height (total plant height)", "setting": "[3]; [12]", "value": 5.7, "unit": "def cm"}, {"measurement": "Count (emergence)", "setting": "[3]; [13]", "value": 21.7, "unit": "de"}, {"measurement": "Height (total plant height)", "setting": "[3]; [13]", "value": 6.0, "unit": "de cm"}, {"measurement": "Count (emergence)", "setting": "[3]; [14]", "value": 20.0, "unit": "de"}, {"measurement": "Height (total plant height)", "setting": "[3]; [14]", "value": 8.3, "unit": "c cm"}, {"measurement": "emergence at approximately equivalent biological response (height)", "setting": "[3]; compacted soil, FIG. 40", "value": 93, "unit": "%"}, {"measurement": "plant height dose/response in wild-type line A4922 (FIG. 40)", "setting": "[3]; ten days after planting, compacted soil", "value": "less active than GA3, GA3-3-acetate, and GA5"}, {"measurement": "Significant Visual Observations on Line A3237", "setting": "[4]", "value": "Normal height"}]}
